The test deals with TLR2 induced IL-6 in peripheral blood mononuclear cells (PBMCs). Nature of the test: PBMC TLR2 Induced IL-6 Assay. Format: cell-based. To be noted: lipoteichoic acid 10 μg/ml 5 h, IL-6 by ELISA. Here is the method: PBMC TLR2 Induced IL-6 Assay
Peripheral blood mononuclear cells (PBMCs) were isolated from human blood containing the anti-coagulant EDTA (2.5 mM) by centrifugation over a FICOLL® gradient. PBMCs (250000 cells/well) were cultured in assay media (RPMI with 10% heat inactivated FCS) with compounds for 30 minutes at 37° C. in a 5% CO2 incubator. Following pretreatment with compounds, cells were stimulated for 5 hours with 10 μg/ml lipoteichoic acid (Invivogen, San Diego, Calif.), a TLR2 agonist. At the end of the culture, plates were centrifuged at 1800 rpm for 10 minutes to pellet the cells. Supernatants were harvested and analyzed for IL-6 levels by ELISA (BD Biosciences, San Jose, Calif.).
(In general: In an ELISA, binding on a coated surface is turned into a signal by an enzyme label.)

[1] abbreviates: Homo sapiens, PBMC, 5 h, value marked * = EC50, read-out: Cell EC50 (*).

Read-outs that look alike come from different tables or passages of the source.

As a reminder, the IC50 is the concentration that gives 50% inhibition. For the compound `CC(C)(O)[C@H](F)CNC(=O)c1cnc(Nc2ncc(C#N)cc2F)cc1NC1CCCOC1` (some centres unmarked) [Example 98], the IC50 (Homo sapiens, PBMC, 5 h, value without asterisk, read-out: Cell IC50) was found to be 690 nM.

By EC50 is commonly meant the midpoint of the concentration-response curve. For the compound `Cc1cnc(Nc2cc(NC(C)C)c(C(=O)NC[C@@H](F)C(C)(C)O)cn2)c(F)c1` [Example 129], the EC50 under setting [1] turned out to be 398 nM.

As for `CC(C)(O)[C@H](F)CNC(=O)c1cnc(Nc2ncc(C#N)c(N)n2)cc1NC1CC1` [Example 154], where the note is “human PBMCs, value marked * = EC50, read-out: Cell EC50 (*)”, the EC50 is 529 nM.

As to `CC(C)(O)[C@H](F)CNC(=O)c1cnc(Nc2ncc(C#N)cc2F)cc1NC1COC1` [Example 164], the EC50 under setting [1] was 174 nM.

`CC(C)Nc1cc(Nc2ncc(C#N)cc2Cl)ncc1C(=O)NC1CCC(C(C)(C)O)CC1` (centres unmarked) [Example 102]: the EC50 under setting [1] was determined as 71 nM.

The values are drawn from US10544133B2, “Heteroaryl substituted pyridyl compounds useful as kinase modulators” (BRISTOL-MYERS SQUIBB COMPANY, priority 2012, dated 2020).
